Laboratory results as given in publication PMC6501587 (The Journal of neuroscience : the official journal of the …, 2009).
Where a chain is given by its changes, count along the chain named. Entries after “also recorded” stand apart in the source; their conditions may differ. Like-named read-outs stand apart in the source and are kept apart here.

Columns and labels:
P2X2aR [1] = biological target: T1, P2X2aR (Rattus norvegicus, UniProt P49653); type: cell-based
T1 sequence (P49653 1-472): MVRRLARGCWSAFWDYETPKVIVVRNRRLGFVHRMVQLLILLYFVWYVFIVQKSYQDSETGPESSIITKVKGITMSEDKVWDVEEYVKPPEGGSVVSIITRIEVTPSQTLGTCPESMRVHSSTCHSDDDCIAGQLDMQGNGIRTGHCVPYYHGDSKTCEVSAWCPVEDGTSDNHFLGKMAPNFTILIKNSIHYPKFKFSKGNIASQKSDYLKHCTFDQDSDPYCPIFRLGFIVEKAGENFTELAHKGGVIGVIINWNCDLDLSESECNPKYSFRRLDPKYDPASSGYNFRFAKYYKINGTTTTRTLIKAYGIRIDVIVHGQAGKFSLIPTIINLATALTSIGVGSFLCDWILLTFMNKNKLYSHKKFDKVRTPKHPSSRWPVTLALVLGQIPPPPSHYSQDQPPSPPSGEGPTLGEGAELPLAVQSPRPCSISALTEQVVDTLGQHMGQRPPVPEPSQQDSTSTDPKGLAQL

P2X2bR [2] = biological target: T2, P2X2bR (Rattus norvegicus, UniProt P49653, DEL370-438); type: cell-based; details: oocytes
T2 sequence (P49653 with tags, fused parts or gaps DEL370-438): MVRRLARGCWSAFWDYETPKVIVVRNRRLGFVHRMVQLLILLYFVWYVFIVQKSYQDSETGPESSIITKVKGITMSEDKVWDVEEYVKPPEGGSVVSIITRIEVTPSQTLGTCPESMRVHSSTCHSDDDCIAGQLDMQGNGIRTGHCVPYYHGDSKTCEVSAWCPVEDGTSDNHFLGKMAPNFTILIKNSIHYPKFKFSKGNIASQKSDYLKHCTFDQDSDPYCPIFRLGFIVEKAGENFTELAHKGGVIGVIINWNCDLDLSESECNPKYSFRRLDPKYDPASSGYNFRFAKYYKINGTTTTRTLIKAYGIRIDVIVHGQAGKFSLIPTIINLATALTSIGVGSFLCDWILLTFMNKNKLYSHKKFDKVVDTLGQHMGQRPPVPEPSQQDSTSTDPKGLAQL

P2X2a-C430A = biological target: T3, P2X2a-C430A (Rattus norvegicus, UniProt P49653, C430A); type: cell-based; details: oocytes
T3 sequence (P49653 1-472 C430A): T1 sequence (P49653 1-472) with C430A

P2X2a-C430S [3] = biological target: T4, P2X2a-C430S (Rattus norvegicus, UniProt P49653, C430S); type: cell-based
T4 sequence (P49653 1-472 C430S): T1 sequence (P49653 1-472) with C430S

P2X4/2a chimera = type: cell-based, rat; details: oocytes
P2X4/2b chimera = type: cell-based, rat; details: oocytes
P2X4R = biological target: T5, P2X4R (Rattus norvegicus, UniProt P51577); type: cell-based; details: oocytes
T5 sequence (P51577 1-388): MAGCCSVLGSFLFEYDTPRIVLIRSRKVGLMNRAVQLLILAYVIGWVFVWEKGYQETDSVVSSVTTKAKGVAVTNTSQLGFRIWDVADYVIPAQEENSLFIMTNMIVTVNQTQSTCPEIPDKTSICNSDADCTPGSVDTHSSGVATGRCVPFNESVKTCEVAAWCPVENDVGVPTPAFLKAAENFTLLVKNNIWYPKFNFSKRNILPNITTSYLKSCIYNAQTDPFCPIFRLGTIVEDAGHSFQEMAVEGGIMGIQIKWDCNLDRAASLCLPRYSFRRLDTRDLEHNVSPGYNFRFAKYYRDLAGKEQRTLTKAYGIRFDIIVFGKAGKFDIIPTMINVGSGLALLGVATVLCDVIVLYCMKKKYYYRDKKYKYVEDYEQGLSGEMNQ

P2X2aR [4] = biological target: T1, P2X2aR; experiment: ATP-evoked currents, whole-cell patch clamp, HEK293 cells expressing P2X2aR; type: cell-based
P2X2bR [5] = biological target: T2, P2X2bR; type: cell-based; details: HEK293 cells
P2X2a-C430S [6] = biological target: T4, P2X2a-C430S; type: cell-based; details: HEK293 cells
P2X4/2a-C430A chimera = details: oocytes; supplemental Fig. 3

Compound: mercury
- effect on the ATP-gated current (P2X2aR [1]; 10 μM metal pre-applied 1 min and co-applied with 30 μM ATP, oocytes): potentiated
- potentiation of ATP-evoked currents (P2X2aR [1]; 10 μM metal, 1 min prior and during ATP (~EC15), oocytes): 12.3 ± 2.6 fold
- potentiation of response still present after washout (P2X2aR [1]; 20 min after washout of 10 μM metal, oocytes): 35 ± 12%
- reversibility of effect on peak current amplitude (P2X2aR [1]; after 10 and 20 min washouts, oocytes): not completely reversible
- 10–90% deactivation time (P2X2aR [1]; in the presence of mercury, oocytes): 17.2 ± 2.8 s
- decrease in the current amplitude on prolonged washout of the metal (P2X2aR [1]; mercury-induced potentiation, wild type receptor): ~70%
- effect on rate of deactivation (P2X2bR [2]; mercury): not significantly affected
- sensitivity to mercury (P2X2bR [2]; supplemental Fig. 3): residual mercury-dependent potentiation
- potentiation of ATP-evoked currents (P2X2a-C430A; 10 μM mercury, ATP ~EC15): 3.3 ± 0.7 fold
- reversibility of effect (P2X2a-C430A; mercury): totally reversible; also recorded: easily reversible
- sensitivity to mercury (P2X2a-C430A; supplemental Fig. 3): residual mercury-dependent potentiation
- potentiation of ATP-evoked currents (P2X2a-C430S [3]; 10 μM mercury, ATP ~EC15, oocytes): 2.2 ± 0.9 fold
- reversibility of effect (P2X2a-C430S [3]; mercury): easily reversible
- sensitivity to mercury (P2X2a-C430S [3]; oocytes, supplemental Fig. 3): residual mercury-dependent potentiation
- effect on maximal ATP response (P2X4/2a chimera; 10 μM mercury): without significantly altering
- potentiation of 1 μM ATP-induced current (P2X4/2a chimera; 10 μM metal, 1 μM ATP): 3.7 ± 0.8 fold
- 10–90% deactivation time (P2X4/2a chimera; in the presence of mercury): 104.7 ± 11.5 s
- increase of 10–90% deactivation time (P2X4/2a chimera; in the presence of mercury): 9 fold
- sensitivity to mercury (P2X4/2a chimera): mercury-sensitive; also recorded: residual mercury-dependent potentiation
- effect on ATP concentration-response curve (P2X4/2b chimera; 10 μM mercury): did not displace
- effect on receptor deactivation (P2X4/2b chimera; 10 μM mercury): nor modified receptor deactivation
- effect on receptor deactivation (P2X4/2b chimera; 10 μM mercury, listed as Mercury): not significantly affected
- sensitivity to mercury (P2X4/2b chimera; 10 μM): mercury resistant; also recorded: insensitivity
- effect on ATP-induced currents (P2X4R; 10 μM metal pre-applied 1 min and co-applied with 10 μM ATP): inhibited
- washout time to attain control currents (P2X4R; after 10 μM metal): 20 to 30 min
- increase of ATP-evoked currents (P2X2aR [4]; 10 μM metal, ATP ~EC15): 5.9 ± 1.3 fold
- increase of ATP-gated currents (P2X2bR [5]; 10 μM metal, ATP ~EC15): 2.5 ± 0.5 fold
- increase of ATP-gated currents (P2X2a-C430S [6]; 10 μM metal, ATP ~EC15): 1.9 ± 0.2 fold
- sensitivity to mercury (P2X4/2a-C430A chimera): insensitivity

Compound: OO [H2O2, hydrogen peroxide]
- increase of ATP-gated currents (P2X2aR [1]; 0.3 mM H2O2, ATP ~EC15, oocytes): 2.8 ± 0.3 fold
- sensitivity to H2O2 (P2X2bR [2]): totally resistant
- sensitivity to H2O2 (P2X2a-C430A): totally resistant
- sensitivity to H2O2 (P2X2a-C430S [3]; oocytes): totally resistant
- increase of the currents (P2X4/2a chimera; 1 mM H2O2): 1.9 ± 0.2 fold
- currents remaining increased after washout (P2X4/2a chimera; 10 min washout after 1 mM H2O2): 0.3 ± 0.1 fold
- sensitivity to H2O2 (P2X4/2b chimera): totally resistant
- inhibition of receptor activity (P2X4R; 1 mM H2O2): 43.8 ± 0.1%
- increase of ATP-evoked currents (P2X2aR [4]; 1 mM H2O2, ATP ~EC15): 1.9 ± 0.3 fold
- sensitivity to H2O2 (P2X2bR [5]; 1 mM): completely resistant
- sensitivity to H2O2 (P2X2a-C430S [6]; 1 mM): completely resistant
- effect of concentrations larger than 1 mM on cells (oocytes and HEK293 cells): cell damage and membrane dissolution
